From patent US10053477B2, “Spirocyclic aryl phosphorus oxide and aryl phosphorus sulfide” (QILU PHARMACEUTICAL CO., LTD., priority 2014, dated 2018)

Columns and labels:
[1] = system: LU-01-0319 xenotransplantation (PDX) from lung cancer patients; assay: In vivo efficacy, LU-01-0319 xenotransplantation (PDX) from lung cancer patients; parameters: species or system BALB/c nude mice; details: 10 mg/kg orally everyday
From the text: BALB/c nude mice, female, 6 to 8 weeks, about 18 to 22 g bodyweight, was kept in a special environment without pathogens, and a single ventilated cage (5 mice per cage). Beddings and water in all the cages were disinfected before use. All the animal had free access to standard authorized commercially available lab diet. 80 mice were supplied by Shanghai BK Laboratory Animal Co., LTD for study. Each mouse was subcutaneously implanted tumor tissue (20-30 mm^3) at right flank for growth of tumor. When the average tumor volume reached about 250-300 mm^3, the assay started. Test compounds were delivered orally everyday, 10 mg/kg. Tumor size was measured with two-dimensional caliper every 3 days, size was recorded by mm^3, and calculated by the following formula: V=V=0.5a×b2, where a and b are respectively the long diameter and short diameter length of the tumor. The antitumor efficacy was determined by dividing the average increased tumor volume in compound-treated animal by the average increased tumor volume in untreated animal.

[2] = system: LU-01-0015 xenotransplantation (PDX) from lung cancer patients; assay: In vivo efficacy, LU-01-0015 xenotransplantation (PDX) from lung cancer patients; parameters: species or system BALB/c nude mice; details: 25 mg/kg orally everyday
In short: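 Female BALB/c nude mice carried subcutaneous LU-01-0015 lung cancer PDX fragments; dosing began at mean tumor volume of about 250–300 mm^3. Compounds were given orally at 25 mg/kg daily. Caliper volumes (0.5a×b²) were taken every 3 days; efficacy is the mean tumor volume increase in treated mice relative to untreated mice.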

ALK L1196M = molecular target: T1, ALK L1196M (Homo sapiens, UniProt Q9UM73, L1196M); assay: ALK L1196M enzymatic inhibition (HTRF); format: biochemical; details: 30 μM ATP
T1 construct: purchased Carna Biosciences (Japan)
T1 sequence (Q9UM73 19-1620 L1196M): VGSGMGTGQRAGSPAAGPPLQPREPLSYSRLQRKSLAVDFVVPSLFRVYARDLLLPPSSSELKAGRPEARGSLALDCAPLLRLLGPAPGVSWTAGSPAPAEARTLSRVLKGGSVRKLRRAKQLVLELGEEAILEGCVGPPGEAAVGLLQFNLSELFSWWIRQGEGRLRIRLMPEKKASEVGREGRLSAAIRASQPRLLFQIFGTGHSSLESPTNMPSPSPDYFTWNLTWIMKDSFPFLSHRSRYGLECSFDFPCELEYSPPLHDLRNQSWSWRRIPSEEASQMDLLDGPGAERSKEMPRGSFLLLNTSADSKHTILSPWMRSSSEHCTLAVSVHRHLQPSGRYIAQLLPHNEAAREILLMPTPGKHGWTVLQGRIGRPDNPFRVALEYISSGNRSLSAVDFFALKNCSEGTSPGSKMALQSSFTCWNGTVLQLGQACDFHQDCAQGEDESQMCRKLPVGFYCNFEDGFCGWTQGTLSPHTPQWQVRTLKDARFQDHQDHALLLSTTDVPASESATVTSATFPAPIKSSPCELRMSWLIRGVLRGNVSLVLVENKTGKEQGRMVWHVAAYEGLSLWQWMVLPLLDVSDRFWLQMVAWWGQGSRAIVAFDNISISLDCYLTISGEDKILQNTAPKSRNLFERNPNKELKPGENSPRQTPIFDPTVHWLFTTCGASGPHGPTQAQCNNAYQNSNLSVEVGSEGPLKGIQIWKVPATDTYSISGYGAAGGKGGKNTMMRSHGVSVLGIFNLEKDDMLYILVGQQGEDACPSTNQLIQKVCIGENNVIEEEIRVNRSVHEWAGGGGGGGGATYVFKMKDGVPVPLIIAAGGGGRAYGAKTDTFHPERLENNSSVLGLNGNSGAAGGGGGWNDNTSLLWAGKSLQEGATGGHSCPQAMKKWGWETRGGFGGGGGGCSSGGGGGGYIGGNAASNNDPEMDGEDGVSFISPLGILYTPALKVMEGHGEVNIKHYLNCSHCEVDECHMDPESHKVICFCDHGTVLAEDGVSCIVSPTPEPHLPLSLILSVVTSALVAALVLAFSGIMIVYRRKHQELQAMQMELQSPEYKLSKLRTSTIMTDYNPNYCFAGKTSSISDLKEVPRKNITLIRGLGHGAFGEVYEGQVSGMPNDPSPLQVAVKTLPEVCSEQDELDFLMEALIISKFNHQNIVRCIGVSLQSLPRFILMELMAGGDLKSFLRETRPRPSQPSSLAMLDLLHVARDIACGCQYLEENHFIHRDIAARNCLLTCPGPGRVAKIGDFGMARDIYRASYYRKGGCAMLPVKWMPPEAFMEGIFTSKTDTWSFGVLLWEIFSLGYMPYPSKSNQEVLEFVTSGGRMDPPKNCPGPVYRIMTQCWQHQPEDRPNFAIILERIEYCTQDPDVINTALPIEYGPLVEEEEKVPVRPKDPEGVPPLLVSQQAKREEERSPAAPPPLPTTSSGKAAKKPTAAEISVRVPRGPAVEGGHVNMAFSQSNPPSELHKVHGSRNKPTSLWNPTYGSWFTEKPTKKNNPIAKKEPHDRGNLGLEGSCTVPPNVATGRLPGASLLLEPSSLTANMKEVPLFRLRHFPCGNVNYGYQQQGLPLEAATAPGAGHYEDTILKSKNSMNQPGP
Procedure: (§1) Enzyme: ALK wild-type, ALK C1156Y and ALK L1196M supplied by Carna Biosciences (Japan), EGFR T790M/L858R supplied by Life technology (Madison, Wis.).
(§2) HTRF kit: supplied by Cis-Bio International, with Eu-marked TK1 antibody, XL665- and biotin-labelled TK1 polypeptide substrates.
Reaction buffer: 50 mM Hepes (pH7.5), 10 mM MgCl2, 0.01 mM NaV3VO4.
(§3) Incubation was carried out for 60 minutes at room temperature. Detection was by Envision.

ALK C1156Y = molecular target: T2, ALK C1156Y (Homo sapiens, UniProt Q9UM73, C1156Y); assay: ALK C1156Y enzymatic inhibition (HTRF); format: biochemical; details: 30 μM ATP
T2 construct: purchased Carna Biosciences (Japan)
T2 sequence (Q9UM73 19-1620 C1156Y): as the sequence (Q9UM73 19-1620 L1196M) above, with C1138Y, M1178L counted along it
Procedure: as §1, §2
Reaction buffer: 50 mM Hepes (pH7.5), 10 mM MgCl2, 0.01 mM NaV3VO4. […] Reaction was reacted at room temperature for 60 minutes.
as §3

EGFR T790M/L858R = molecular target: T3, EGFR T790M/L858R (Homo sapiens, UniProt P00533, L858R/T790M); assay: EGFR T790M/L858R enzymatic inhibition (HTRF); format: biochemical; details: 20 μM ATP
T3 construct: purchased Life technology (Madison, Wis.)
T3 sequence (P00533 25-1210 T790M/L858R): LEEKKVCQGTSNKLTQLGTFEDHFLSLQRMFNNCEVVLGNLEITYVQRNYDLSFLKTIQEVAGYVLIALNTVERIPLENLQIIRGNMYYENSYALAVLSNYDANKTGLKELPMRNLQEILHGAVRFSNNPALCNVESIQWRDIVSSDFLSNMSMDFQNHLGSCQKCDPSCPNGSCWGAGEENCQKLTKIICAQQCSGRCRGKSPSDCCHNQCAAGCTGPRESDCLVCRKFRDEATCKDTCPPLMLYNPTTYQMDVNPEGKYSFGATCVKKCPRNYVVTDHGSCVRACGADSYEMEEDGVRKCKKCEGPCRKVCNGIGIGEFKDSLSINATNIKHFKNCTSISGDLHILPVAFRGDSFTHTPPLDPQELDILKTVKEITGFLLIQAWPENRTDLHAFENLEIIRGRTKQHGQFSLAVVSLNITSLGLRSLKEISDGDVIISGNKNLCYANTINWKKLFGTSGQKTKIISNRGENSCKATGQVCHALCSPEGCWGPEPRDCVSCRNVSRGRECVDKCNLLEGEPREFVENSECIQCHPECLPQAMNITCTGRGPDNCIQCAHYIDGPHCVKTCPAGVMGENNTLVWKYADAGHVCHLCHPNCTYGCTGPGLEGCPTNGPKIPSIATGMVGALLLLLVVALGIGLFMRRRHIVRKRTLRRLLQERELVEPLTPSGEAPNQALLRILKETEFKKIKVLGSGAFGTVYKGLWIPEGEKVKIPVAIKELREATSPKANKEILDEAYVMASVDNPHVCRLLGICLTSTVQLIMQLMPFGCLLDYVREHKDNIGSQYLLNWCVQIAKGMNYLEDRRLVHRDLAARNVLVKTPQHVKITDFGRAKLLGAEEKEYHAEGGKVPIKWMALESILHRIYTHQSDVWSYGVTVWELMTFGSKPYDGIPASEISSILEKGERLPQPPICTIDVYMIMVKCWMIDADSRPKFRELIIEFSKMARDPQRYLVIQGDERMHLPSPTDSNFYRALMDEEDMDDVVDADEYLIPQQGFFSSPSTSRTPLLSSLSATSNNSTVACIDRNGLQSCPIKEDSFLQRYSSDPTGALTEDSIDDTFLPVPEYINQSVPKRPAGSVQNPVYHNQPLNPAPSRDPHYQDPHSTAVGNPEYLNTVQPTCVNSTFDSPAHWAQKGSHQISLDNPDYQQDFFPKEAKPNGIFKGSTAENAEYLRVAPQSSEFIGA
In short: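 HTRF with 0.08 nM EGFR T790M/L858R, 1 μM biotin-TK1 peptide and 20 μM ATP in 50 mM Hepes pH 7.5, 10 mM MgCl2, 60 min at room temperature. Compound 11-point 3-fold series, final […] to 0.017 nM. Detection used Eu-anti-TK1 antibody (2 nM) plus XL665 (62.5 nM), 60 min.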

ALK wild-type = molecular target: T4, ALK wild-type (Homo sapiens, UniProt Q9UM73); assay: ALK wild-type enzymatic inhibition (HTRF); format: biochemical; details: 30 μM ATP
T4 construct: purchased Carna Biosciences (Japan)
T4 sequence (Q9UM73 19-1620): as the sequence (Q9UM73 19-1620 L1196M) above, with M1178L counted along it
Procedure: as §1, §2
10 μl wild-type ALK enzyme reaction mixture system: 0.5 nM wild-type ALK, 1 μM biotin-TK1 peptide, 30 μM ATP. Reaction buffer: 50 mM Hepes (pH7.5), 10 mM MgCl2, 0.01 mM NaV3VO4.
as §3

[3] = system: LU-01-0319 Crizotinib resistance model; assay: In vivo anti-tumor efficacy, Crizotinib resistant LU-01-0319 xenotransplantation (PDX) tumor; parameters: species or system BALB/c nude mice
From the text: LU-01-0319 xenotransplantation tumor models initially obtained from clinical sample through surgical resection were implanted into nude mice, which was defined as a batch of P0 (LU-01-0319-P0). The next batch was defined as P1 (LU-01-0319-P1) which was implanted tumors from P0. FP3 was regained from P2, the next batch was defined as FP4 which was implanted tumors from FP3. […] The continuous increasing tumors were defined as LU-01-0319 antitumor models. BALB/c nude mice, female, 6 to 8 weeks, about 18 to 22 g bodyweight, 75 mice were used for study, supplied by Shanghai BK Laboratory Animal Co., LTD. Tumour biopsies (about 30 mm^3) of LU-01-0319R FP6 were implanted subcutaneously on right side of each mouse for growth of tumor. […] Dose of Crizotinib was appropriately varied depending on the tumor size. When average tumor volume reached about ˜500 mm^3, the assay began. Once a day the compounds to be tested were orally administered. Tumor size were measured twice a week with a caliper at two dimensions, and calculated with the following formula: V=0.5a×b2, where a and b are respectively long diameter and short diameter of the tumor. The antitumor efficacy was determined by dividing the average increased tumor volume in compound-treated animal by the average increased tumor volume in untreated animal.

SMILES: COc1cc(N2CCC3(CCN(C)CC3)CC2)ccc1Nc1ncc(Cl)c(Nc2ccccc2P(C)(C)=O)n1 [Compound 9, (2-((5-Chloro-2-((2-methoxy-4-(9-methyl-3,9-diazaspiro[5.5]undecan-3-yl)phenyl)amino)pyrimidin-4-yl)amino)phenyl)dimethyl phosphine oxide]
- Tumor volume ([1]; 0 days): 371 mm^3
- Tumor volume ([1]; 2 days): 359 mm^3
- Tumor volume ([1]; 6 days): 369 mm^3
- Tumor volume ([1]; 9 days): 301 mm^3
- Tumor volume ([1]; 13 days): 305 mm^3
- Tumor volume ([1]; 16 days): 291 mm^3
- Tumor volume ([1]; 20 days): 203 mm^3
- Tumor volume ([1]; 23 days): 172 mm^3
- Tumor volume ([2]; 3 days): 158 mm^3
- Tumor volume ([2]; 6 days): 108 mm^3
- Tumor volume ([2]; 9 days): 82 mm^3
- Tumor volume ([2]; 12 days): 58 mm^3
- Tumor volume ([2]; 16 days): 48 mm^3
- Tumor volume ([2]; 19 days): 46 mm^3
- Tumor volume ([2]; 23 days): 43 mm^3
- IC50 (ALK L1196M): 0.001 to 0.1 µM
- IC50 (ALK C1156Y): 0.001 to 0.1 µM
- IC50 (EGFR T790M/L858R): 0.001 to 0.1 µM
- IC50 (ALK wild-type): 0.001 to 0.1 µM
- Tumor volume ([3]; 0 day, dosage 3 mg/Kg orally once a day): 502 mm^3
- Tumor volume ([3]; 0 day, dosage 10 mg/Kg orally once a day): 502 mm^3
- Tumor volume ([3]; 3 days, dosage 3 mg/Kg orally once a day): 722 mm^3
- Tumor volume ([3]; 3 days, dosage 10 mg/Kg orally once a day): 557 mm^3
- Tumor volume ([3]; 7 days, dosage 3 mg/Kg orally once a day): 859 mm^3
- Tumor volume ([3]; 7 days, dosage 10 mg/Kg orally once a day): 416 mm^3
- Tumor volume ([3]; 10 days, dosage 3 mg/Kg orally once a day): 1101 mm^3
- Tumor volume ([3]; 10 days, dosage 10 mg/Kg orally once a day): 261 mm^3
- Tumor volume ([3]; 13 days, dosage 3 mg/Kg orally once a day): 1218 mm^3
- Tumor volume ([3]; 13 days, dosage 10 mg/Kg orally once a day): 196 mm^3
- Tumor volume ([3]; 17 days, dosage 3 mg/Kg orally once a day): 1441 mm^3
- Tumor volume ([3]; 17 days, dosage 10 mg/Kg orally once a day): 133 mm^3
- Tumor volume ([3]; 19 days, dosage 3 mg/Kg orally once a day): 1521 mm^3
- Tumor volume ([3]; 19 days, dosage 10 mg/Kg orally once a day): 102 mm^3
